Read-outs that look alike come from different tables or passages of the source.
Experiments:
HEp-2 cells = assay: Cytotoxicity Determination (CCK-8, without addition of virus); assay type: cell-based
How it was run: (§1)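 HEp-2 cells were seeded at 1,500 cells/well one day before compound addition. Compounds were tested without virus in duplicate over 7 points from 100 μM in 1/2 steps, with 1% final DMSO, 5 days at 37 °C, 5% CO2. Viability was read by CCK-8 after 3-4 hours.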

RSV replicon = assay: microbe, parasite or virus in culture; assay type: cell-based; details: human respiratory syncytial virus, read-out: EC50, the concentration of the drug required for reducing RSV replicon RNA by 50%
[1] = test system: Respiratory Syncytial Virus (RSV) long strain; assay: microbe, parasite or virus in culture; assay type: cell-based; details: human respiratory syncytial virus, Tables A and B list compounds by EC50 band
How it was run: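 HEp-2 cells infected with 100 TCID50 virus per well, compounds in duplicate, 9-point 1/3 dilutions from 100 μM or 1 μM, 1% DMSO. After 5 days at 37 °C, cell viability (CPE protection) read by CCK-8 absorbance at 450 nm, 630 nm background.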

recombinant RSV complex = recombinant RSV complex (Human respiratory syncytial virus A, UniProt P28887); assay: RSV Polymerase Inhibition Assay; assay type: biochemical
Chain of recombinant RSV complex (P28887 whole entry): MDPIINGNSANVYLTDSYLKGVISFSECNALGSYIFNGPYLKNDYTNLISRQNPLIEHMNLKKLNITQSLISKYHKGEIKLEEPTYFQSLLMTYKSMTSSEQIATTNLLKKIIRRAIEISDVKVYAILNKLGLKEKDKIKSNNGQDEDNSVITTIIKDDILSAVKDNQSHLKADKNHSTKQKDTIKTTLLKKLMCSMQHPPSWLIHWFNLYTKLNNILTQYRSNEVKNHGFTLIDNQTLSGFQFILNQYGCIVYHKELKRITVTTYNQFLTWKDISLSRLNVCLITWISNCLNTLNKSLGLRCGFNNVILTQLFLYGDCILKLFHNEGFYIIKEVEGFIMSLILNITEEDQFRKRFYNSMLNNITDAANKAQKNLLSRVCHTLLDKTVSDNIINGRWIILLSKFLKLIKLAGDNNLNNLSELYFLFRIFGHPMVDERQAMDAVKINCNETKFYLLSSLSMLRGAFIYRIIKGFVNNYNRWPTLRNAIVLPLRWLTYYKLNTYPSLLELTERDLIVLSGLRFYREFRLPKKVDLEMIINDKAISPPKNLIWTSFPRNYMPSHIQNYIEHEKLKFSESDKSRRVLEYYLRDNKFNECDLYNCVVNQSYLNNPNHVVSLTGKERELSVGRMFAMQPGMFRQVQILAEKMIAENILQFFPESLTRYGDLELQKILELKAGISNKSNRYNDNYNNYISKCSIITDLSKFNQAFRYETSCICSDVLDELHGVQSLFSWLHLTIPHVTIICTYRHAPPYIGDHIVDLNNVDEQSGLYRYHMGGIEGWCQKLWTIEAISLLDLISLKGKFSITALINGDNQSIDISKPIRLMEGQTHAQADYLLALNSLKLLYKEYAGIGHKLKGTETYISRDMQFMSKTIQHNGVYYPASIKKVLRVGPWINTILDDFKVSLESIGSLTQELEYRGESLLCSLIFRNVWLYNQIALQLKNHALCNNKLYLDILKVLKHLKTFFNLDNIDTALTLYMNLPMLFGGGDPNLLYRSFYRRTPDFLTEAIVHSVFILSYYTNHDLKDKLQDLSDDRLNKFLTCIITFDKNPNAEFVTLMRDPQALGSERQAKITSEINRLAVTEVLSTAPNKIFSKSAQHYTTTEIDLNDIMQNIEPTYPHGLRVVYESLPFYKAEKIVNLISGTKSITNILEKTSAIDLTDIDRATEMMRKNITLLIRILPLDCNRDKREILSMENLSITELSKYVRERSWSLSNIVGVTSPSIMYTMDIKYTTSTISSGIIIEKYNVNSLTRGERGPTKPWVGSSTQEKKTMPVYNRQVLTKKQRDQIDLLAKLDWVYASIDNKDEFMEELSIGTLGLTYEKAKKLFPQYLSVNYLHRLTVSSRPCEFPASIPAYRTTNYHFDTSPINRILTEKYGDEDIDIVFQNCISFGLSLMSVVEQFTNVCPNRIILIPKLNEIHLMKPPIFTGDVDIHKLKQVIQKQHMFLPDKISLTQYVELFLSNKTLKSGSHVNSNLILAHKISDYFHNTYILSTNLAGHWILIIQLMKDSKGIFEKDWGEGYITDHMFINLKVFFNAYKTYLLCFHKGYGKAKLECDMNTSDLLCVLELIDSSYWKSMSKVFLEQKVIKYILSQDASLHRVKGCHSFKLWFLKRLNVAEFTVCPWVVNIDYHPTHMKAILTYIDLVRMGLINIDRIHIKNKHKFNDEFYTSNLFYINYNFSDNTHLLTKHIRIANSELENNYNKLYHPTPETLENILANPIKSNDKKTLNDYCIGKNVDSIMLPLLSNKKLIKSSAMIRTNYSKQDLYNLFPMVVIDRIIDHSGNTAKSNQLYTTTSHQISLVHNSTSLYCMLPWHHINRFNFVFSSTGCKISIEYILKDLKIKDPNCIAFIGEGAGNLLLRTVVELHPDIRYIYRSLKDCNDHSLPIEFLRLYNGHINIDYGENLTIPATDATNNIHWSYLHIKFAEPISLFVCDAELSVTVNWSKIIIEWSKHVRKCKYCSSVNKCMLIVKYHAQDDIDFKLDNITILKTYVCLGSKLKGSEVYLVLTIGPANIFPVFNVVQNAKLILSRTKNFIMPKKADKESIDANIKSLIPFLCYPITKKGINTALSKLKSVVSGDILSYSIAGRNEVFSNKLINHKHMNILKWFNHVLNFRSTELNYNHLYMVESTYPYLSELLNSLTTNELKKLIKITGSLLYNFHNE
Chain of recombinant RSV complex (P03421 whole entry, further chain): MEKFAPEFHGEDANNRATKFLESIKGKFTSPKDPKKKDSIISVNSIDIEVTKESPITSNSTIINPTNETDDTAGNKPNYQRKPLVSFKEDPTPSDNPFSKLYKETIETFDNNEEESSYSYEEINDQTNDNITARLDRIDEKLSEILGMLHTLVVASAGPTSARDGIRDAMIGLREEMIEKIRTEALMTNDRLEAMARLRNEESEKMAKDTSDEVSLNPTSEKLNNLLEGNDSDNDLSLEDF
How it was run: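 10 nM recombinant RSV polymerase complex in Tris-HCl pH 7.5, 6 mM MgCl2 with RNA oligonucleotide template and radionucleotides, incubated 2 h at 30 °C with increasing inhibitor concentrations. Reaction stopped with EDTA; radiolabeled RNA product counted by scintillation.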

[2] = Cytotoxicity Determination (CCK-8, without addition of virus); assay type: cell-based; details: human, 50% cytotoxicity concentration (CC50)
How it was run: as §1

[3] = HEp-2, 120 h, read-out: 50% effective concentration (EC50), HEp-2 cells infected with RSV long strain, 5 days, CCK-8 readout

Structure (SMILES) | CC50 (HEp-2 cells) [µM] | CC50 (HEp-2 cells; human, 5 days) [µM] | EC50 (RSV replicon) [µM] | EC50 [1, 3] [µM] | IC50 (recombinant RSV complex) [µM] | CC50 at 5 days [2] [µM] | EC50 ([1]; 120 h, read-out: 50% effective concentration (EC50), HEp-2 cells infected with RSV long strain, 5 days, CCK-8 readout) [µM]
COc1ccc(C(O)(CNC(=O)c2ccc(O[C@H]3CCNC3=O)c(Cl)c2)C(F)(F)F)cc1-c1ccc(F)c(Cl)c1 (stereo partly drawn) [Compound 260] | 10 to 100 | – | – | – | – | – | –
COc1cc(C(=O)NCC(O)(c2ccc(OC)c(-c3ccc(F)c(Cl)c3)n2)C(F)F)ccc1OCC(N)=O (stereo not drawn) [Compound 447] | – | > 100 | – | – | – | – | –
COc1cc(C(=O)NCC(O)(c2ccc(OC)c(-c3ccc(F)c(Cl)c3)n2)C(F)(F)F)ccc1OCC(N)=O (single isomer, unassigned) [Compound 239] | – | 10 to 100 | < 1 | – | – | – | –
COc1cc(C(=O)NCC(O)(c2ccc(OC)c(-c3ccc(F)c(Cl)c3)n2)C(F)F)ccc1OCC(N)=O (stereo not drawn) [Compound 442] | – | 10 to 100 | < 1 | < 1 | < 1 | – | –
COc1cc(C(=O)NCC(O)(c2ccc(OC)c(-c3ccc(F)c(Cl)c3)n2)C2CC2)ccc1OCCO (stereo not drawn) [Compound 243] | – | 10 to 100 | – | – | – | – | –
CCC(O)(CNC(=O)c1ccc(OCCF)c(OC)c1)c1ccc(OC)c(-c2ccc(F)c(Cl)c2)n1 (single isomer, unassigned) [Compound 122b] | – | 10 to 100 | – | – | < 10 | – | –
COc1cc(C(=O)NCC(O)(c2cc(C(C)(N)CF)cc(-c3ccc(F)cc3)n2)C(F)(F)F)ccc1OCC(N)=O (single isomer, unassigned) [Compound 655] | – | > 100 | – | – | < 1 | – | –
COc1cc(C(=O)NCC(O)(c2cc(C(C)(N)CF)cc(-c3ccc(F)cc3)n2)C(F)(F)F)ccc1OCC(N)=O (single isomer, unassigned) [Compound 656] | – | 10 to 100 | – | < 1 | – | – | –
COc1cc(C(=O)NCC(O)(Cn2ccnc2)c2ccc(OC)c(-c3ccc(F)c(Cl)c3)n2)ccc1OCCO (stereo not drawn) [Compound 191] | – | – | < 1 | < 1 | < 1 | > 100 | –
COc1cc(C(=O)NCC(O)(c2cc(C3(N)CC3)cc(-c3ccc(F)cc3)n2)C(F)(F)F)ccc1OC[C@@H](C)O (stereo partly drawn) [Compound 598] | – | – | < 1 | < 1 | < 1 | 10 to 100 | –
COc1cc(C(=O)NCC(O)(c2cc3c(c(-c4ccc(F)c(Cl)c4)n2)OCCC3)C2CC2)ccc1OCCO (stereo not drawn) [Compound 309] | – | – | < 1 | < 1 | < 1 | 10 to 100 | –
COc1cc(C(=O)NCC(O)(c2cc(C(C)(C)N)cc(-c3ccc(F)cc3)n2)C(F)(F)F)ccc1OCC(N)=O (stereo not drawn) [Compound 580] | – | – | < 1 | – | < 1 | > 100 | < 1
COc1cc(C(=O)NCC(O)(CO)c2ccc(OC)c(-c3ccc(F)c(Cl)c3)n2)ccc1OC1CC1 (stereo not drawn) [Compound 384] | – | – | < 1 | < 1 | < 1 | 10 to 100 | –
COc1cc(C(=O)NCC(O)(c2ccc(OC)c(-c3ccc(F)c(Cl)c3)n2)C(C)O)ccc1OC1CC1 (stereo not drawn) [Compound 454] | – | – | < 1 | < 1 | < 1 | 10 to 100 | –
COc1cc(C(=O)NCC(N)(c2cc(C(C)(C)N)cc(-c3ccc(F)c(Cl)c3)n2)C(F)(F)F)ccc1OC1CC1 (stereo not drawn) [Compound 504] | – | – | < 1 | < 1 | < 1 | 10 to 100 | –
COc1cc(C(=O)NCC(O)(c2ccc(OC)c(-c3ccc(F)c(Cl)c3)n2)C(C)(C)C)ccc1OCCF (stereo not drawn) [Compound 313] | – | – | 1 to 50 | 1 to 50 | < 10 | 10 to 100 | –
COc1cc(C(=O)NC[C@@](O)(c2cc(C(C)(C)N)cc(-c3ccc(F)c(Cl)c3)n2)C(F)(F)F)ccc1OCC(N)=O [Compound 547] | – | – | < 1 | < 1 | < 1 | 10 to 100 | –
COc1cc(C(=O)NCC(C)(O)c2ccc(OC)c(-c3ccc(F)c(Cl)c3)n2)ccc1OCCF (stereo not drawn) [Compound 119] | – | – | < 1 | < 1 | < 1 | 10 to 100 | –
C#CC(O)(CNC(=O)c1ccc(OCCF)c(OC)c1)c1ccc(OC)c(-c2ccc(F)c(Cl)c2)n1 (stereo not drawn) [Compound 127] | – | – | 1 to 50 | < 1 | < 1 | 10 to 100 | –
COc1ccc(C(O)(CNC(=O)c2ccc(OC[C@@H](C)O)c(Cl)c2)C(F)(F)F)nc1-c1ccc(F)c(Cl)c1 (stereo partly drawn) [Compound 232] | – | – | < 1 | < 1 | < 1 | 10 to 100 | –

— US11021444B2, “Antiviral compounds” (priority 2013, dated 2021)
